Measured values published in patent publication US11931327B2, “Drug for retinal degenerative disease associated with photoreceptor degeneration” (Daiichi Sankyo Company, Limited, priority 2017, dated 2024).

Tests used:
[1] = tested on: transgenic zebrafish Tg (rho: NTR-NanoLuc, my17: DsRed2); assay: animal or person; details: for rod-cell regeneration induction activity compared to the DMSO control: Examples 3 and 4, TTNPB 0.3, 1, 3, 10 and 30 μM, N=4, RA and BMS493 N=8, Dunnett's test; for EC50: Danio rerio, 48 h, read-out: EC50 of rod-cell regeneration induction (Activation (% of control) 50%); for rod-cell regeneration induction activity: Example 6, various RAR agonists
From the text: First, the present inventors constructed a model for evaluating induction of rod cell regeneration. […] Transgenic zebrafish Tg (rho: NTR-NanoLuc, my17: DsRed2), in which a fluorescent protein, DsRed2, which is cardiac-tissue specifically expressed by cardiomyocyte-specific my17 promoter, can be simply detected by using dsRed2 as a marker under a fluorescence stereomicroscope. In the transgenic zebrafish, in addition to cardiac tissue specific expression of DsRed2, a reductase, i.e., nitroreductase (NTR), and a photoprotein, i.e., NanoLuc fusion protein (NTR-NanoLuc), are expressed by a rod-cell specific rho promoter, in a rod-cell specific manner. […] However, if, a prodrug, metronidazole, is added, non-toxic metronidazole is converted to a toxic radical by NTR. […] After rod cells are ablated by treatment with metronidazole, the transgenic zebrafish were washed with rearing water to remove the toxic radical. […] In the transgenic zebrafish, rod cells can be quantitatively determined by measuring the amount of luminescence derived from rod-cell-specific NanoLuc expression. After the rod cells are ablated, the transgenic zebrafish are exposed to a test compound. The activity of the test compound to induce rod-cell regeneration can be quantitatively evaluated by measuring the amount of luminescence derived from NanoLuc and specific to rod cells.
1) On the day before collection of eggs, a pair of male and female zebrafish, i.e., a transgenic fish Tg (rho: NTR-NanoLuc, my17: DsRed2) and a wild type, were placed in a tank for mating and isolated by a divider.
2) The next morning (8:00-11:00), the divider was removed to allow them to mate with each other. Fertilized eggs were collected. In the evening (16:00-18:00) of the same day, only normally developed fertilized eggs were screened and raised in a plate for growth.
3) Day 3 after fertilization, juvenile fish were transferred to rearing water, which contained 10 mM metronidazole (Sigma-Aldrich, Japan) and 1% DMSO (Wako Pure Chemical Industries Ltd.), (prepared by dissolving 60 mg of instant ocean (Napco Limited (Japan)) in 1 L of distilled water), and raised in dark conditions for 24 hours. In this manner, ablation was specifically applied to the rod cells of the juvenile fish. In contrast, non-ablated juvenile fish, which were to be used as a control, were transferred to a tank containing rearing water, which contained a 1% DMSO solution, and raised.
5) Ablated juvenile fish of 4 days after fertilization were washed well with Egg water and dispensed in wells of the assay plate containing a compound together with 100 μL of Egg water, such that 2 juvenile fish individuals were present per well.
6) After the juvenile fish were raised for 2 days, […] of Egg water was removed and ethyl 3-aminobenzoate methanesulfonate (Sigma-Aldrich Japan; 0.4 mg/mL, 10 μL) was added to euthanize the fish.
7) Nano-Glo (registered trademark) Luciferase assay Substrate (Promega Corporation) was added to Nano-Glo (registered trademark) Luciferase assay buffer (Promega Corporation) in a ratio of 1:50 and 100 μL of the resultant solution was added to each of the wells.
8) Shaking was carried out by use of BIO-Mixer (Biotech Japan Co., Ltd.) for one hour and luminescence of NanoLuc (registered trademark) was measured by use of EnVision (PerkinElmer Co., Ltd., Japan).
Individual concentration groups were compared to the DMSO control group by the Dunnett's test.

[2] = molecular target: T1, Human RARα (Homo sapiens, UniProt P10276); assay: RAR agonistic activity, luciferase reporter (3xDR5: luc) in HEK293A cells; details: concentration exhibiting luminescence of 1000% of Negative control; 24 hours exposure; N=4
T1 sequence (P10276 1-462): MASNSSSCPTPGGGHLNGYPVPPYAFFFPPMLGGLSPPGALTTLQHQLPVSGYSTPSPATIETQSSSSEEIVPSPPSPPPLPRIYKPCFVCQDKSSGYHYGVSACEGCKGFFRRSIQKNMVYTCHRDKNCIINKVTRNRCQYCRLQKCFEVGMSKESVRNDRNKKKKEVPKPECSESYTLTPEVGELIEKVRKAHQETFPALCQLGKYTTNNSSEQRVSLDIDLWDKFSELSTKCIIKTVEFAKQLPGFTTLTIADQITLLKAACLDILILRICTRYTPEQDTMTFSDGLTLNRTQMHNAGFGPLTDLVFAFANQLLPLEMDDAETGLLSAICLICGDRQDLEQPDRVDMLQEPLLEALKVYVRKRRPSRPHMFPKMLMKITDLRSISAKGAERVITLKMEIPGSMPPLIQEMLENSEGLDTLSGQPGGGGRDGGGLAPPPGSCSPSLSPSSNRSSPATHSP
Experimental: (§1) RAR agonistic activity was measured in the following procedure.
(§2) 1) HEK293A cells (Invitrogen), which functionally co-express Human RARα, Human RARβ and Human RARγ, were prepared by adding Lipofectamine (registered trademark) 2000 Transfection Reagent (Thermo Fisher Scientific) to an RAR synthetic response element luciferase reporter construct (3xDR5: luc) in accordance with the method described in the manual attached to the kit.
(§3) 3) Twenty-four hours after exposure to a compound, luminescence from the cells was measured by using PICCA JEAN (registered trademark) luminescence kit (TOYO B-Net CO., LTD.) and EnVision (PerkinElmer Corporation, Japan) (N=4).
(§4) In evaluation of RAR agonistic activity, provided that the measurement value (Negative control) of luminescence from the cells with no addition of a compound was determined as 100%, the RAR agonistic activity (%) of a test substance was calculated in accordance with the following expression. The average value thereof was plotted versus the concentration of a test substance. RAR agonistic activity (%)=(measurement value of sample well÷average value of Negative control)×100

[3] = molecular target: T2, Human RARβ (Homo sapiens, UniProt P10826); assay: as above; details: concentration exhibiting luminescence of 1000% of Negative control; 24 hours exposure; N=4
T2 sequence (P10826 1-448 isoform P10826-2): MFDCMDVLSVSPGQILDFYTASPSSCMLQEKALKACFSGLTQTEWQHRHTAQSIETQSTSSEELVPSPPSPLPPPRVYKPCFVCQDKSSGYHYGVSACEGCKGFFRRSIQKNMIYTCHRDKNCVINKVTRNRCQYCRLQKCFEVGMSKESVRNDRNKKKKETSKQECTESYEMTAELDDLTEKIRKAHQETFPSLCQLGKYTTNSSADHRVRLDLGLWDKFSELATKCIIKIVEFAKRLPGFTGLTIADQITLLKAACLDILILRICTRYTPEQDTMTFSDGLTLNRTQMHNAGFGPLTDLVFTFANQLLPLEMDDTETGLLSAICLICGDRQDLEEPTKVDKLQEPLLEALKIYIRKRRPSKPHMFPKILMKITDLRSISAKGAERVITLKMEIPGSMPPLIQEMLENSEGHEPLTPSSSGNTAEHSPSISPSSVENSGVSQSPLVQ
Experimental: as §1, §2, §3, §4

[4] = molecular target: T3, Human RARγ (Homo sapiens, UniProt P13631); assay: as above; details: concentration exhibiting luminescence of 500% of Negative control; 24 hours exposure; N=4
T3 sequence (P13631 1-454): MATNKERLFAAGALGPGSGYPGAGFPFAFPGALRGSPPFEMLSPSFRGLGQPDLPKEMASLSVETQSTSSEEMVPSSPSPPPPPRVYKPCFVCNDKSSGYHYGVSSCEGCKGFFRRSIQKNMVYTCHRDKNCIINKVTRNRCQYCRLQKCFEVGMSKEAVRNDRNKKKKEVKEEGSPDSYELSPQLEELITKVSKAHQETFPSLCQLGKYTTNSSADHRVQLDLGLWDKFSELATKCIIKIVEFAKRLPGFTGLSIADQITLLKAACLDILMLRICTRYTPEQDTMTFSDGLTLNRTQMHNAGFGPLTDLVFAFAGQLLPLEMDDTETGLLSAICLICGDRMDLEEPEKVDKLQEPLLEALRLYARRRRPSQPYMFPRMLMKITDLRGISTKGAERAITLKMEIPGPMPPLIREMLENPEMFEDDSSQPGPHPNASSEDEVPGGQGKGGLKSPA
Experimental: as §1, §2, §3, §4

[5] = tested on: pathological zebrafish 2: Tg (rho: NTR-NanoLuc, my17: DsRed2) crossed with Tg (rho: hRHO (Q344X), omp: EGFP); assay: Rod-cell regeneration effect in retinitis pigmentosa model, quantitative evaluation by NanoLuc luminescence; assay type: in vivo; details: N=8 per concentration; Dunnett's test; FIG. 7
Experimental: Pathological model zebrafish, in which rod-cell regeneration can be quantitatively evaluated, were newly prepared using zebrafish known as a retinitis pigmentosa model. The effect of compounds was quantitatively verified in accordance with the following procedure.
1) Quantitative evaluation of rod-cell regeneration was carried out by zebrafish (pathological zebrafish 2) obtained by crossing transgenic Tg (rho: NTR-NanoLuc, my17: DsRed2) and Tg (rho: hRHO (Q344X), omp: EGFP).
Fertilized eggs were collected.
A screening test was repeated 8 times (N=8) at each concentration.
2) After shaking for one hour using BIO-Mixer, the luminescence from NanoLuc (registered trademark) was measured by use of EnVision.

[6] = tested on: transgenic zebrafish Tg (rho: NTR-NanoLuc, my17: DsRed2); assay: Validation: ablation of rod cells by metronidazole, luminescence derived from rod cells; assay type: in vivo; details: 10 mM for 24 hours, day 3 after fertilization
Experimental: Thereafter, rod-cells are gradually regenerated in the zebrafish.
Day 3 after fertilization, the transgenic zebrafish were treated with 10 mM metronidazole (Sigma-Aldrich Japan) for 24 hours and euthanized by adding ethyl 3-aminobenzoate methanesulfonate (Sigma-Aldrich Japan). Luminescence derived from rod cells was measured in accordance with the manual attached to Nano-Glo (registered trademark) Luciferase Assay System (Promega Corporation). […] The resultant transgenic ablated fish were washed with rearing water, and a toxic radical derived from metronidazole was removed. Luminescence derived from the rod cells after 24 and 48 hours was measured. As a result, it was confirmed that rod cells are gradually regenerated over 48 hours (FIG. 3).

| Molecule | EC50 [1] | RARα EC1000 [2] | RARβ EC1000 [3] | RARγ EC500 [4] | also measured |
| --- | --- | --- | --- | --- | --- |
| 4-[(1E)-2-[5,6-dihydro-5,5-dimethyl-8-(2-phenylethynyl)-2naphthalenyl]ethenyl]benzoate [BMS493] | – | – | – | – | precipitation of compound in the assay ([1]; 30 μM): precipitated; toxicity to fish ([1]; 100 μM, cardiac arrest): all fish died; rod-cell regeneration induction activity compared to the DMSO control [1]: did not show rod-cell regeneration induction activity |
| COc1ccc(-c2ccc3cc(C(=O)O)ccc3c2)cc1C12CC3CC(CC(C3)C1)C2 [Adapalene] | > 1000 nM | 12 nM | 6.9 nM | 54 nM | Activation (% of control) ([1]; at 1000 nM (the maximum concentration evaluated), DMSO = 0%, 1 μM TTNPB = 100%): 39% |
| CC1=C(/C=C/C(C)=C/C=C/C(C)=C/C(=O)O)C(C)(C)CCC1 [All-trans Retinoic acid] | – | – | – | – | rod-cell regeneration induction activity compared to the DMSO control [1]: significant rod-cell regeneration induction activity in a concentration-dependent manner |
| CC1(C)CCC(C)(C)c2cc(Cn3cccn3)c(/C=C/c3ccc(C(=O)O)cc3)cc21 [Palovarotene] | 1210 nM | – | – | – | – |
| CCOC(=O)c1ccc(C(=O)Nc2ccc3c(c2)C(C)(C)CCC3(C)C)cc1 [Tamibarotene ethyl ester] | 4.9 nM | 21.8 nM | 514 nM | 714 nM | rod-cell regeneration induction activity [1]: strong rod-cell regeneration induction activity |
| COC(=O)c1ccc(C(=O)Nc2ccc3c(c2)C(C)(C)CCC3(C)C)cc1 [Tamibarotene methyl ester] | 85.4 nM | 0.91 nM | 29.1 nM | 72.8 nM | – |
| CC1(C)CCC(C)(C)c2cc(NC(=O)c3ccc(C(=O)O)cc3)ccc21 [Tamibarotene] | 9.08 nM | – | 79 nM | 248 nM | rod-cell regeneration induction activity [1]: strong rod-cell regeneration induction activity; regeneration of rod cells in the retinitis pigmentosa model (luminescence, words) [5]: statistically significant regeneration of rod cells in a dose dependent manner |
| CCOC(=O)c1ccc(C#Cc2ccc3c(c2)C(C)(C)CCS3)nc1 [Tazarotene] | 402 nM | – | – | – | – |
| CC1(C)CCSc2ccc(C#Cc3ccc(C(=O)O)cn3)cc21 [Tazarotenic acid] | 786 nM | 12 nM | 4.4 nM | 48 nM | – |
| Cc1ncc([N+](=O)[O-])n1CCO [metronidazole] | – | – | – | – | number of rod cells remaining after ablation (luminescence) [6]: 13.5% |
